From ChEMBL document CHEMBL3734721 (J Med Chem, 2015)

Assays:
Cytochrome P450 2C9 = Cytochrome P450 2C9 (Homo sapiens, UniProt P11712); experiment: Inhibition of human CYP2C9 by LC-MS analysis; type: ADME
[1] = Fraction unbound in rat brain at 5 uM after 5 hrs by LC-MS/MS analysis; type: ADME, tissue-based
[2] = Chemical stability of compound in DMSO assessed as compound remaining at 10 mg/ml after 1 day at room temperature; type: physicochemical; conditions: read-out: Stability
[3] = biological target: T1, Alpha-1A adrenergic receptor (Homo sapiens, UniProt P35348); experiment: Agonist activity at human wild-type alpha 1A receptor expressed in CHO cells assessed as calcium level by HTRF assay; type: functional, cell-based
T1 sequence (P35348 whole entry): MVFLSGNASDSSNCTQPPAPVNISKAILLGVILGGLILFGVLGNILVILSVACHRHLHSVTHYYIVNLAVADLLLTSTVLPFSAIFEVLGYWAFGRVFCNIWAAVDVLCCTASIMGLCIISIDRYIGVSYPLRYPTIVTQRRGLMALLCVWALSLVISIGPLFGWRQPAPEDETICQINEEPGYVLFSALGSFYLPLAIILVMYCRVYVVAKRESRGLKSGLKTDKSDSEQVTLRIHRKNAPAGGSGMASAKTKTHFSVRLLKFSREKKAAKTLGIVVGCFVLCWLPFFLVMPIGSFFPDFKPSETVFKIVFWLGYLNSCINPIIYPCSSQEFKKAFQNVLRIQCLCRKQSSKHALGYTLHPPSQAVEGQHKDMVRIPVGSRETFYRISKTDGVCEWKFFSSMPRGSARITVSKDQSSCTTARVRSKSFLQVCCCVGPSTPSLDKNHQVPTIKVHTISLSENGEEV

human MDR1 = experiment: Efflux ratio of permeability across basolateral to apical side over apical to basolateral side in MDCK cells expressing human MDR1 at 5 uM by LC-MS/MS method; type: ADME, cell-based, Canis lupus familiaris; conditions: dog
Adenosine receptor A3 = biological target: T2, Adenosine receptor A3 (Homo sapiens, UniProt P0DMS8); experiment: Antagonist activity at human wild-type A3 receptor expressed in CHO-K1 cells assessed as IB MECA-induced cAMP by HTRF assay; type: functional, cell-based
T2 sequence (P0DMS8 whole entry): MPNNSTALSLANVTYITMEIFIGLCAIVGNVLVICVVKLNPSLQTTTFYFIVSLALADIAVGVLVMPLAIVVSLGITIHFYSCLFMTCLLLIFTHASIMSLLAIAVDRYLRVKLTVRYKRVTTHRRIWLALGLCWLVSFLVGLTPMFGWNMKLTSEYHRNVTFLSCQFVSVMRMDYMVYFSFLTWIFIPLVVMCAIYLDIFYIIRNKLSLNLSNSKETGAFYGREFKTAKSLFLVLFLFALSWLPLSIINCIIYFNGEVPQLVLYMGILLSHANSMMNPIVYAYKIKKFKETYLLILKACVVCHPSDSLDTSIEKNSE

[4] = biological target: Muscarinic acetylcholine receptor M3 (Homo sapiens, UniProt P20309); experiment: Agonist activity at human wild-type M3 receptor expressed in CHO-K1 cells assessed as calcium level by FDSS assay; type: functional, cell-based
Sequence of Muscarinic acetylcholine receptor M3 (P20309 whole entry): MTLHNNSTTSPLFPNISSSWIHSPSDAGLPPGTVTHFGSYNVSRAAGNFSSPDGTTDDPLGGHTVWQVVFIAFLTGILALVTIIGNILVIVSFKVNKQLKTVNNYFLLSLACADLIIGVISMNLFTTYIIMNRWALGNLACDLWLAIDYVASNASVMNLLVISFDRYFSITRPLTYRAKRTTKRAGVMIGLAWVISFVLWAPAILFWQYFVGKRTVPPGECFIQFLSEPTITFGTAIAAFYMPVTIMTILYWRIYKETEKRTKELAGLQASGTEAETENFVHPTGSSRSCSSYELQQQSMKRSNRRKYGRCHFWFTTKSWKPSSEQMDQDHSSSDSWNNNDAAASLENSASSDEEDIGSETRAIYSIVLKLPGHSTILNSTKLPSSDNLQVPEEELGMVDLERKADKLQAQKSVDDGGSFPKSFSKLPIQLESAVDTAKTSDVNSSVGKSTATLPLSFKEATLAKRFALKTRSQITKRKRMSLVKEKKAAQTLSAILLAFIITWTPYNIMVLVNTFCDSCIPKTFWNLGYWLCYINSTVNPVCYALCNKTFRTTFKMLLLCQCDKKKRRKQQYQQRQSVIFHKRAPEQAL

[5] = biological target: T3, Alpha-2A adrenergic receptor (Homo sapiens, UniProt P08913); experiment: Antagonist activity at human wild-type alpha 2A receptor expressed in CHO-K1 cells assessed as epinephrine-induced cAMP by HTRF assay; type: functional, cell-based
T3 sequence (P08913 whole entry): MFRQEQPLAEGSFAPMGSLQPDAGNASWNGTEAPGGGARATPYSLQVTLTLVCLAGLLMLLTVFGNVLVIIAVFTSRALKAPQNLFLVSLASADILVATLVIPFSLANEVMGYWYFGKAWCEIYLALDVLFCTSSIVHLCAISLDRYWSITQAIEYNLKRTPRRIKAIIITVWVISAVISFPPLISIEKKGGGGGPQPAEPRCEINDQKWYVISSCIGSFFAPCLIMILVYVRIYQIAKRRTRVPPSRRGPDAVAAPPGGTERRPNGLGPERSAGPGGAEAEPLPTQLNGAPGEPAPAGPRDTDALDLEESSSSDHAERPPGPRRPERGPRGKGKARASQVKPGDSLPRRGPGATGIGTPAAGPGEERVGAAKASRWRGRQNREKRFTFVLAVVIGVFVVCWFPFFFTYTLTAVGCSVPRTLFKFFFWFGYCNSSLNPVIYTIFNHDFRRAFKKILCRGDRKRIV

[6] = biological target: T4, Muscarinic acetylcholine receptor M2 (Homo sapiens, UniProt P08172); experiment: Agonist activity at human wild-type M2 receptor expressed in CHO-K1 cells assessed as cAMP level by HTRF assay; type: functional, cell-based
T4 sequence (P08172 whole entry): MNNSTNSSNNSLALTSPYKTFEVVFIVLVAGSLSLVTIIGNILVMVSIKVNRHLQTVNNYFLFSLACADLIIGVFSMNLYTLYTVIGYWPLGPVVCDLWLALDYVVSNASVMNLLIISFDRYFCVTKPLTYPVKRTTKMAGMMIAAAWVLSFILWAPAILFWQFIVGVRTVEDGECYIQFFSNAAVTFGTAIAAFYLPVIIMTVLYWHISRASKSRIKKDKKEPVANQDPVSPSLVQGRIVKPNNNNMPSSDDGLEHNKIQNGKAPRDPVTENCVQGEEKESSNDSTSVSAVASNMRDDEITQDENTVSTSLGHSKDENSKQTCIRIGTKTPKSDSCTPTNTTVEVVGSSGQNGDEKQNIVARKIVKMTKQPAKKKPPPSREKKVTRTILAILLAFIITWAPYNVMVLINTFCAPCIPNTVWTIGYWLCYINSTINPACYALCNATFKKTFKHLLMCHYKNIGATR

[7] = biological target: 5-hydroxytryptamine receptor 6 (Homo sapiens, UniProt P50406); experiment: Agonist activity at human 5-HT6 receptor expressed in 1321N1 cells assessed as cAMP by HTRF assay; type: functional, cell-based
Sequence of 5-hydroxytryptamine receptor 6 (P50406 whole entry): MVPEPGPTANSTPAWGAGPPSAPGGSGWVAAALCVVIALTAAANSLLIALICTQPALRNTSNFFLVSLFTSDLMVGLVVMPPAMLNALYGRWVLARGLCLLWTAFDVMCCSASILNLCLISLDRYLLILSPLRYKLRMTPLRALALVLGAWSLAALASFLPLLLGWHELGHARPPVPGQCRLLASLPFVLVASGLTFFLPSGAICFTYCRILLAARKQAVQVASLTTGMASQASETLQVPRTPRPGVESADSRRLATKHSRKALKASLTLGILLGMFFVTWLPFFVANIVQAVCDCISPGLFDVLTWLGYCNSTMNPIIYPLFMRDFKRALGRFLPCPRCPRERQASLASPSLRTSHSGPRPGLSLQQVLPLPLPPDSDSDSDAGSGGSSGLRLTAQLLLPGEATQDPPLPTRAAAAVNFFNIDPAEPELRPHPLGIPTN

[8] = Chemical stability of compound in DMSO assessed as compound remaining at 10 mg/ml after 24 days at room temperature under air; type: physicochemical; conditions: read-out: Stability
[9] = biological target: 5-hydroxytryptamine receptor 1B (Homo sapiens, UniProt P28222); experiment: Antagonist activity at human 5-HT1B receptor expressed in CHO-K1 cells assessed as seretonin-induced cAMP level by HTRF assay; type: functional, cell-based
Sequence of 5-hydroxytryptamine receptor 1B (P28222 whole entry): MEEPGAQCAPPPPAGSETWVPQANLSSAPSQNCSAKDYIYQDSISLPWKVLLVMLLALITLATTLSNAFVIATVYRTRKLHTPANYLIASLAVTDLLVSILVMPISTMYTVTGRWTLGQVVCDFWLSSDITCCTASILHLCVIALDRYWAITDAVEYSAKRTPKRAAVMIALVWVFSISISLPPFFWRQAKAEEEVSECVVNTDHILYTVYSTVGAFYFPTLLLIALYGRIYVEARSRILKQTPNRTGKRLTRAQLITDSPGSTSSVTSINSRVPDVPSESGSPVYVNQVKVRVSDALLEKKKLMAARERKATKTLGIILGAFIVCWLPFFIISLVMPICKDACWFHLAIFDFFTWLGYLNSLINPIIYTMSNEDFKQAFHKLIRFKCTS

[10] = Intrinsic clearance in rat liver microsomes at 1 uM by HPLC/MS/MS analysis; type: ADME; conditions: read-out: CLH
Salmonella typhimurium = experiment: Mutagenicity in Salmonella typhimurium by Ames test; type: toxicity, organism-based; conditions: salmonella enterica subsp. enterica serovar typhimurium
[11] = Log D of compound at pH 7.4 by chromotography; type: physicochemical; conditions: buffer
[12] = Chemical stability of compound in 0.1N HCL and 0.5% H2O2 assessed as compound remaining at 10 mg/ml after 1 day; type: physicochemical; conditions: read-out: Stability
[13] = biological target: T5, Delta-type opioid receptor (Homo sapiens, UniProt P41143); experiment: Agonist activity at human wild-type opioid-delta 1 receptor expressed in CHO-K1 cells assessed as cAMP level by HTRF assay; type: functional, cell-based
T5 sequence (P41143 whole entry): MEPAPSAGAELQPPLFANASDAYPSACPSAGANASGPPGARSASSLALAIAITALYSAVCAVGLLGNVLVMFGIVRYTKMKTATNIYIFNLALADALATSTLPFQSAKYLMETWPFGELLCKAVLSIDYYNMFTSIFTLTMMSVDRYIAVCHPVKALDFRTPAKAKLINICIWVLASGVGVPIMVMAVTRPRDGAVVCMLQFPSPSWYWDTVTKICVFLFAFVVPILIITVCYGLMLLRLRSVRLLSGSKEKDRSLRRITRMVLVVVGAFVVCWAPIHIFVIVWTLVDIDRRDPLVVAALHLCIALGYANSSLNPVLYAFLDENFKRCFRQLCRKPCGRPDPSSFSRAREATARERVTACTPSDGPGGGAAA

[14] = biological target: T5, Delta-type opioid receptor; experiment: Antagonist activity at human wild-type opioid-delta 1 receptor expressed in CHO-K1 cells assessed as DPDPE-induced cAMP by HTRF assay; type: functional, cell-based

Sequence of Cytochrome P450 2C9 (P11712 whole entry): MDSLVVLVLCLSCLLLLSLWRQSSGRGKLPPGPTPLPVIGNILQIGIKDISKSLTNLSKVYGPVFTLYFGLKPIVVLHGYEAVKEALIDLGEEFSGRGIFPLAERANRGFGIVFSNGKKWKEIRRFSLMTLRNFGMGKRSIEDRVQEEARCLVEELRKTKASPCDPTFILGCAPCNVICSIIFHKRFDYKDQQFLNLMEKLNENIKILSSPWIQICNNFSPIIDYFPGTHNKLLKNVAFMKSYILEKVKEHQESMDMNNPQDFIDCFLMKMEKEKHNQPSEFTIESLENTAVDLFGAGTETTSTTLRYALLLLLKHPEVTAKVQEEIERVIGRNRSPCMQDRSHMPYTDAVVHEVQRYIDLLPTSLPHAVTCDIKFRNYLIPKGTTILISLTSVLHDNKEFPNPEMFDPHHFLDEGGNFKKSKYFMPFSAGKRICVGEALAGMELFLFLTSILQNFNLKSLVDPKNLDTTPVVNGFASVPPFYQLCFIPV

In the case of CB1C=Cc2cccc(OCC(O)CNC(C)C)c2N1 (stereo unspecified), the IC50 (Cytochrome P450 2C9) is reported as over 10 µM, the fraction unbound at 5 h, 5 µM [1] is reported as 0.0055 and the remaining at 24 h, 10 mg/ml [2] is reported as 96%. For the same molecule, the EC50 [3] was over 5.01 µM, the efflux ratio at 5 µM (human MDR1) was 2.1 and the IC50 (Adenosine receptor A3) was over 5.01 µM. The EC50 [4] was over 5.01 µM, the IC50 [5] was over 5.01 µM and the EC50 [6] was over 5.01 µM. For the same molecule, the EC50 [7] was over 5.01 µM, the remaining at 576 h, 10 mg/ml [8] was 98% and the IC50 [9] was over 5.01 µM. The microsomal CLint at 1 µM [10] was 289 µL/min/mg, the Activity (Salmonella typhimurium) was “Non-toxic” and the chromatographic logD [11] was 2.31. It also gave a remaining at 24 h, 10 mg/ml [12] of 0%.

CB1C=Cc2c(cccc2OCC(O)CN(C)C)N1 (stereo unspecified) showed an IC50 (Cytochrome P450 2C9) of over 10 µM, a fraction unbound at 5 h, 5 µM [1] of 0.019 and a remaining at 24 h, 10 mg/ml [2] of 97%. For the same molecule, the EC50 [3] was over 5.01 µM, the IC50 (Adenosine receptor A3) was over 5.01 µM and the EC50 [4] was over 5.01 µM. It also gave an IC50 [5] of over 5.01 µM, an EC50 [13] of over 5.01 µM and an EC50 [6] of over 5.01 µM. It also gave an EC50 [7] of over 5.01 µM, a remaining at 576 h, 10 mg/ml [8] of 97% and an IC50 [9] of over 5.01 µM. The microsomal CLint at 1 µM [10] was over 346 µL/min/mg, the chromatographic logD [11] was 1.81 and the IC50 [14] was over 5.01 µM.
